Data from PMC10272112 (Nature Communications, 2023).

Columns and labels:
Assay in all cases: Chemoproteomic competition pulldown assay (co-competed CoREST partner)
Assay type in all cases: binding
[1] = test system: HMG20B; settings: iL, MV4-11 lysate
Method: (§1) To identify proteins directly bound by lipoic acid, we employed a chemoproteomic competition assay. Briefly, (R/S)-LA was immobilized on sepharose beads via an amidation reaction to form an affinity matrix (abbreviated as iL; Fig. 1a). This affinity matrix can be incubated with cell lysate to pull down potential LA or LM target proteins and identify these targets via bottom-up proteomics. In a competition assay, free LA or LM were incubated with lysate at different concentrations before pulling down and quantifying target proteins. […] (Fig. 1b, see “Methods” for details). […] The lysate buffer used in this assay contains 1 mM DTT to mimic the intracellular reductive milieu and to reduce lipoic acid and LM. […] Additional competition assays performed in lung adenocarcinoma cell A549 lysate also identified HDAC1, HDAC2, and HDAC6 as targets (Supplementary Fig. 1b). Amongst the three cell lines tested, HDACs were the only confidently identified targets across the 1500–3000 proteins quantified in these assays. […] We validated the results by analogous pulldown competition assays using two other affinity matrices prepared via the immobilization of either the HDAC inhibitor Quisinostat (iQ) and an analog of the class IIa HDAC inhibitor Bürli’s 31[14] (iC)[12]. We have previously shown that these affinity matrices specifically bind to the active sites of HDACs and have used them for HDACi selectivity profiling. Indeed, binding of (R/S)-LA and (R/S)-LM to HDAC1, HDAC2, HDAC3, HDAC6, and, to a lesser extent, HDAC8 was confirmed in these assays (Supplementary Fig. 1c, d). No binding to class IIa HDACs or the recently discovered common HDAC inhibitor off-target MBLAC2 was observed (Supplementary Fig. 1e)[12]. […] This observation might reflect electrostatic repulsion between the HDAC10 active site gate-keeper glutamic acid residues[15],[16] and the terminal carboxylic acid of LA.
(§2) To assess the degree of protein depletion from lysates by the affinity matrix, a second pulldown (PDPD) with fresh beads was performed using the unbound protein fraction from the vehicle control flow through. The beads were washed (1 × 1 mL of lysis buffer without inhibitors and only 0.4% Igepal, 2 × 2 mL of lysis buffer without inhibitors and only 0.2% Igepal), and captured proteins were denatured with 8 M urea buffer, alkylated with 55 mM chloroacetamide and digested with Trypsin according to standard procedures. The resulting peptides were desalted on a C18 filter plate (Sep-Pak® tC18 µElution Plate, Waters), vacuum dried, and stored at −20 °C until LC–MSMS measurement.
(§3) For the competition assays, relative binding was calculated based on the protein intensity ratio to the DMSO control for every single inhibitor concentration. EC50 values were derived from a four-parameter log-logistic regression with variable slope (constrain: bottom > 0). The obtained EC50 values were multiplied with a protein-dependent correction factor (cf), resulting in the apparent Kd value (Kd^app). The correction factor is determined by calculating the ratio of the protein intensity of two consecutive pulldowns of the vehicle control sample[13]. Targets of the inhibitors were annotated manually according to published procedures[12],[46],[47]. […] Additionally, the number of unique peptides and MSMS counts per condition were taken into account. Positive target binding across several independent experiments performed with different cell lysates further substantiated our confidence for a true positive drug-target binding event.

[2] = test system: RCOR3
Method: as §1, §2, §3

[3] = test system: HMG20A
Method: as §1, §2, §3

[4] = test system: RCOR1; settings: iL, MV4-11 lysate
Method: as §1, §2, §3

[5] = iL, MV4-11 lysate, log10 M -3.52288
[6] = iL, MV4-11 lysate, log10 M -4.52288
[7] = iL, MV4-11 lysate, log10 M -5.52288
[8] = iL, MV4-11 lysate, log10 M -6.52288
[9] = iQ, SW620 lysate, log10 M -3.52288
[10] = iQ, SW620 lysate, log10 M -4.52288
[11] = iQ, SW620 lysate, log10 M -5.52288
[12] = iQ, SW620 lysate, log10 M -6.52288

## NC(=O)CCCCC1CCSS1 (racemic) [(R/S)-LM, (R/S)-lipoamide]
[1]; log10 M -3.52288
  relative binding vs DMSO: 0.0242
[1]; log10 M -4
  relative binding vs DMSO: 0.0521
[1]; log10 M -4.52288
  relative binding vs DMSO: 0.1443
[1]; log10 M -5
  relative binding vs DMSO: 0.4724
[1]; log10 M -5.52288
  relative binding vs DMSO: 0.6292
[1]; log10 M -6
  relative binding vs DMSO: 0.8935
[1]; log10 M -6.52288
  relative binding vs DMSO: 0.8513
[1]; log10 M -7
  relative binding vs DMSO: 1.055
[2]; [5]
  relative binding vs DMSO: 0.04482
[2]; iL, MV4-11 lysate, log10 M -4
  relative binding vs DMSO: 0.03145
[2]; [6]
  relative binding vs DMSO: 0.2203
[2]; iL, MV4-11 lysate, log10 M -5
  relative binding vs DMSO: 0.5854
[2]; [7]
  relative binding vs DMSO: 0.7487
[2]; iL, MV4-11 lysate, log10 M -6
  relative binding vs DMSO: 1.237
[2]; [8]
  relative binding vs DMSO: 1.016
[2]; iL, MV4-11 lysate, log10 M -7
  relative binding vs DMSO: 0.9839
[2]; [9]
  relative binding vs DMSO: 0.0548
[2]; iQ, SW620 lysate, log10 M -4
  relative binding vs DMSO: 0.3164
[2]; [10]
  relative binding vs DMSO: 0.4259
[2]; iQ, SW620 lysate, log10 M -5
  relative binding vs DMSO: 0.6647
[2]; [11]
  relative binding vs DMSO: 0.7959
[2]; iQ, SW620 lysate, log10 M -6
  relative binding vs DMSO: 1.1558
[2]; [12]
  relative binding vs DMSO: 0.7323
[2]; iQ, SW620 lysate, log10 M -7
  relative binding vs DMSO: 0.9341
[3]; [5]
  relative binding vs DMSO: 0.1398
[3]; iL, MV4-11 lysate, log10 M -4
  relative binding vs DMSO: 0.1277
[3]; [6]
  relative binding vs DMSO: 0.1925
[3]; iL, MV4-11 lysate, log10 M -5
  relative binding vs DMSO: 0.5136
[3]; [7]
  relative binding vs DMSO: 0.6563
[3]; iL, MV4-11 lysate, log10 M -6
  relative binding vs DMSO: 0.8243
[3]; [8]
  relative binding vs DMSO: 0.9555
[3]; iL, MV4-11 lysate, log10 M -7
  relative binding vs DMSO: 1.012
[3]; [9]
  relative binding vs DMSO: 0.03313
[3]; iQ, SW620 lysate, log10 M -4
  relative binding vs DMSO: 0.1846
[3]; [10]
  relative binding vs DMSO: 0.4151
[3]; iQ, SW620 lysate, log10 M -5
  relative binding vs DMSO: 0.6118
[3]; [11]
  relative binding vs DMSO: 0.969
[3]; iQ, SW620 lysate, log10 M -6
  relative binding vs DMSO: 0.8792
[3]; [12]
  relative binding vs DMSO: 0.8032
[3]; iQ, SW620 lysate, log10 M -7
  relative binding vs DMSO: 1.062
[4]; log10 M -3.52288
  relative binding vs DMSO: 0.05785
[4]; log10 M -4
  relative binding vs DMSO: 0.0548
[4]; log10 M -4.52288
  relative binding vs DMSO: 0.1462
[4]; log10 M -5
  relative binding vs DMSO: 0.4201
[4]; log10 M -5.52288
  relative binding vs DMSO: 0.5816
[4]; log10 M -6
  relative binding vs DMSO: 0.5592
[4]; log10 M -6.52288
  relative binding vs DMSO: 0.7783
[4]; log10 M -7
  relative binding vs DMSO: 0.8248
